Measurements reported in patent publication US20150330989A1, “METHOD AND SYSTEM FOR DIAGNOSING AND TREATING PREECLAMPSIA” (THE BRIGHAM AND WOMEN'S HOSPITAL, INC., priority 2012, published 2015).

What was measured:
[1] = molecular target: T1, C3 convertase, classical (Homo sapiens, UniProt P06681); conditions: in vitro; cited from earlier work
T1 sequence (P06681 244-752 limits assumed): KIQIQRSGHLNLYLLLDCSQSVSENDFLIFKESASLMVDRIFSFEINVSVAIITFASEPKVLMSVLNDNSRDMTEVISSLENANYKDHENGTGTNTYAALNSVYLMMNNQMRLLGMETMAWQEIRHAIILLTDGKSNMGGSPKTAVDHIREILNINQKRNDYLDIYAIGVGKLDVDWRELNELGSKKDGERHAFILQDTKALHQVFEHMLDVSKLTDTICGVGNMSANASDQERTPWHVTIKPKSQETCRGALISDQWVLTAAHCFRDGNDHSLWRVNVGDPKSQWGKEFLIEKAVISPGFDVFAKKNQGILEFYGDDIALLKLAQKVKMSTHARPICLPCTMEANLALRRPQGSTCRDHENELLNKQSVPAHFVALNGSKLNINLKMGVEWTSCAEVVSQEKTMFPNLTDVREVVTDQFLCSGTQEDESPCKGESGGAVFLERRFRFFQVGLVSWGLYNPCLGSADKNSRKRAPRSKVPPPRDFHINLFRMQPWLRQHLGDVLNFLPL

[2] = system: severe preeclampsia/HELLP syndrome; assay: Case report: Eculizumab treatment of a pregnant patient with severe preeclampsia/HELLP syndrome; assay type: in vivo, human; conditions: initial course during Eculizumab treatment
[3] = molecular target: factor D (Homo sapiens, UniProt P00746); conditions: site of action factor D; cited from earlier work
Chain of factor D (P00746 26-253): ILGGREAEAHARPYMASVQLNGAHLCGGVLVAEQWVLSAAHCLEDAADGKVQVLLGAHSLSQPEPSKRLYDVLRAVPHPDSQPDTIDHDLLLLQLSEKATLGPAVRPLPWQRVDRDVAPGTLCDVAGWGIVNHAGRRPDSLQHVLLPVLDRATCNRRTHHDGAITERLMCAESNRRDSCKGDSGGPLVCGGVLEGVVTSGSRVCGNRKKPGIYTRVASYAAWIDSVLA

[4] = system: patent ductus arteriosus; assay: NICU course of the neonate; assay type: in vivo, human
Procedure: The neonate was intubated at 10 min of life for respiratory support and admitted to the NICU. They were extubated the following morning after one dose of surfactant; blood cultures were negative; and head ultrasound was normal. NICU course was notable for a patent ductus arteriosus (responsive to Indomethacin) and inguinal hernia repair (day 67), after which they were discharged home in good condition. There were trace levels of Eculizumab in cord blood samples taken at delivery, thought secondary to contamination with maternal blood.

[5] = molecular target: T2, C2, classical (Homo sapiens, UniProt P06681); conditions: in vitro; cited from earlier work
T2 sequence (P06681 21-752): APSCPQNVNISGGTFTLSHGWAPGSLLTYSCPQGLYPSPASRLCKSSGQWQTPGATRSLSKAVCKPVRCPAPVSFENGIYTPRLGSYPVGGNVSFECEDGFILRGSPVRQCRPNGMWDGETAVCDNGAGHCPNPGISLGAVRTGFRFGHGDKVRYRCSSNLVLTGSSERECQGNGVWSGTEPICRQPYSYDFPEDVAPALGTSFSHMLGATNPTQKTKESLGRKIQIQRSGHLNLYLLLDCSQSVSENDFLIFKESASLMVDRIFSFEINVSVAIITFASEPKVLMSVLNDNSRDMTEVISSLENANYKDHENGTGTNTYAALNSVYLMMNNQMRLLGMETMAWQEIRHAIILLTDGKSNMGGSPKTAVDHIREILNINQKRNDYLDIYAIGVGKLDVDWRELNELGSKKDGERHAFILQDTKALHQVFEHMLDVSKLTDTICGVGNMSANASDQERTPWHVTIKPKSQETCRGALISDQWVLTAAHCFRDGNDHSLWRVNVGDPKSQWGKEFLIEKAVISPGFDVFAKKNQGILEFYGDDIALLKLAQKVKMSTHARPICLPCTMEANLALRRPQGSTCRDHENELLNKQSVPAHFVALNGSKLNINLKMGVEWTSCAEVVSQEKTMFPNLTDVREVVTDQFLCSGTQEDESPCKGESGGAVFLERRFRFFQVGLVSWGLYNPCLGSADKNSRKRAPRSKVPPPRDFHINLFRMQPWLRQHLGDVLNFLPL

O=C(/C=C/c1ccc(O)c(O)c1)O[C@H](Cc1ccc(O)c(O)c1)C(=O)O [Rosmarinic acid]
IC50 [1]: 5 to 10 µM

CC(CCc1ccccc1)NCC(O)c1ccc(O)c(C(N)=O)c1 (stereo not drawn) [Labetalol]
escalating blood pressures, response [2]: responded

NS(=O)(=O)c1cc(C(=O)O)c(NCc2ccco2)cc1Cl [Lasix]
pulmonary edema, response [2]: responded

N=C(N)c1cc2ccc(OC(=O)c3cccs3)cc2s1 [BCX-1470]
IC50 [3]: 0.096 µM

COc1ccc2c(c1)c(CC(=O)O)c(C)n2C(=O)c1ccc(Cl)cc1 [Indomethacin]
patent ductus arteriosus, response [4]: responsive

CC1(C)[C@@H](O[C@H]2O[C@H](C(=O)O)[C@@H](O)[C@H](O)[C@H]2O[C@@H]2O[C@H](C(=O)O)[C@@H](O)[C@H](O)[C@H]2O)CC[C@]2(C)[C@H]3C(=O)C=C4[C@@H]5C[C@@](C)(C(=O)O)CC[C@]5(C)CC[C@@]4(C)[C@]3(C)CC[C@@H]12 [Glycyrrhizin]
IC50 [5]: 35 µM
